In patent US20250339409A1, “USES OF PAN BET INHIBITORS” (VYNE THERAPEUTICS INC., priority 2021, published 2025):
Values joined by “and” are separate entries in the source; they are usually repeats but may differ in a detail not shown here. Equal entries are not always repeated.

Tests used:
[1] = tested on: anti collagen antibodies induced arthritis (ACAIA); assay: ACAIA mice: hot plate withdrawal latency; format: in vivo, Balb/c mice
Description: On days 0, 5 and 11 animals are placed on hot plate apparatus (53±1° C.) and the time until the first response is observed and recorded.

[2] = Homogeneity of BETi1 dispersions in NaCMC/saline by light microscopy; format: physicochemical; details: suspensions in NaCMC solutions
Description: BETi1 is dispersed in 0.5% Sodium Carboxymethyl Cellulose (NaCMC) solution in NaCl saline (0.9% NaCl in water) to receive 4 mg/gram dispersion. […] All dispersions are thermally sterilized.
BETi suspensions at 4 mg/g (0.4%), at 0.4 mg/g (0.04%) and at 0.04 mg/g (0.004%) (Table 38) were prepared in NaCMC solutions as set out in Experimental Method N. The homogeneity (including absence of aggregates of solid particles) of the dispersion was analyzed and confirmed by light microscopy as shown in FIG. 14A-C. […] In the sample at 0.04 mg/g mainly larger crystals were observed, since the smaller ones were probably dissolved.

[3] = tested on: MMP-9; assay: RHE vitiligo model: MMP-9 secretion by ELISA; format: cell-based, human; details: for reduction in secreted MMP-9: 1% treatment, vs stimulated/untreated control or vehicle; for MMP-9 (% stimulated ctl) Mean / MMP-9 (% stimulated ctl): TNF-α/IFN-γ stimulated RHE; for MMP-9 (% stimulated ctl) Mean / MMP-9 (% stimulated ctl) / Mean conc MMP-9 / Conc MMP-9: 48 h; for MMP-9 (% stimulated ctl) / Conc MMP-9: replicates N1-N3; for Mean conc MMP-9 / Conc MMP-9: culture medium of RHE, TNF-α 12 ng/ml/IFN-γ 12 ng/ml
Description: […] Three epidermis samples per condition are fixed in 4% formaldehyde solution and embedded in paraffin for further analysis (morphology analysis, melanin and melanocytes localisation/quantification). Three other epidermis samples per condition are put in a specific lysis buffer for total RNA extraction.
At the end of the treatments, culture media is collected (from 3 epidermis per condition), aliquoted and stored at −20° C. until use in ELISA assays. The quantity of MMP-9 secreted by the epidermis at the end of the treatments is analysed using the human MMP-9 Quantikine ELISA kit (Bio-Techne; DMP900). The secretion of E-cadherin in culture media is measured using to human E-cadherin Quantikine ELISA kit (Bio-Techne; DCADE0) dedicated for the measurement of natural human E-cadherin in culture supernates, serum, plasma, urine, and saliva.
The ELISAs are performed following the instructions of the supplier. The quantities of MMP-9 and E-cadherin are determined by comparisons with standard curves performed with recombinant human MMP-9 or E-cadherin provided in the kits.
Quantification of secretion of MMP-9 and E-cadherin by ELISA from collected culture medium was conducted in accordance with Method E. The results, shown in FIG. 5A and FIG. 5B are based on Tables 23 and 24 respectively and presented in percentage of release in comparison to the stimulated control. A statistical analysis (student t-test) was performed to compare the effects of the treatments with the formulations to the vehicle (with $: 0.05>p>0.01; $$: 0.01>p>0.001; and $$$: p<0.001). The same analysis was performed to compare the effects of the vehicle and of the unstimulated control to the stimulated control (with *: 0.05>p>0.01; **: 0.01>p>0.001; and ***: p<0.001). The analysis was performed from three replicates per condition (n=3). The mean of the three values and the standard deviation are presented on the histograms in FIG. 5A and FIG. 5B. As shown in Table 21 and FIG. 5A and consistent with the results of Part A, MMP-9 secretion was increased following the stimulation with the cytokines, which validates the assay.

## Cn1cc(-c2cccc(O)c2Oc2ccccc2)c2cc[nH]c2c1=O [BETi1]
[1]; 0.01 mg/kg IA, Baseline
  Hot Plate Change in withdrawal latency (Avg.): 11.57 s
[1]; 0.01 mg/kg IA, Day 5
  Hot Plate Change in withdrawal latency (Avg.): 11.86 s
[1]; 0.01 mg/kg IA, Day 11
  Hot Plate Change in withdrawal latency (Avg.): 12.00 s
[1]; 0.1 mg/kg IA, Baseline
  Hot Plate Change in withdrawal latency (Avg.): 11.14 s
[1]; 0.1 mg/kg IA, Day 5
  Hot Plate Change in withdrawal latency (Avg.): 10.43 s
[1]; 0.1 mg/kg IA, Day 11
  Hot Plate Change in withdrawal latency (Avg.): 9.57 s
[1]; 1 mg/kg IA, Baseline
  Hot Plate Change in withdrawal latency (Avg.): 11.71 s
[1]; 1 mg/kg IA, Day 5
  Hot Plate Change in withdrawal latency (Avg.): 11.57 s
[1]; 1 mg/kg IA, Day 11
  Hot Plate Change in withdrawal latency (Avg.): 11.29 s
[1]; 10 mg/kg IA, Baseline
  Hot Plate Change in withdrawal latency (Avg.): 10.57 s
[1]; 10 mg/kg IA, Day 5
  Hot Plate Change in withdrawal latency (Avg.): 12.00 s
[1]; 10 mg/kg IA, Day 11
  Hot Plate Change in withdrawal latency (Avg.): 11.00 s
[2]
  aggregates of API particles in dispersions: no visible aggregates of API particles
[3]
  reduction in secreted MMP-9: ~95%
[3]; listed as BETi1 1%
  reduction in secreted MMP-9: > 95%
[3]; listed as BETi 1%
  reduction in secreted MMP-9: about 94.7%
[3]; BETi1 0.001%
  MMP-9 (% stimulated ctl) Mean: 137%
  MMP-9 (% stimulated ctl): 140% and 138% and 134%
  Mean conc MMP-9: 24.1 ng/mL
  Conc MMP-9: 24.5 ng/mL and 24.1 ng/mL and 23.5 ng/mL
[3]; BETi1 0.01%
  MMP-9 (% stimulated ctl) Mean: 113%
  MMP-9 (% stimulated ctl): 113% and 104% and 122%
  Mean conc MMP-9: 19.8 ng/mL
  Conc MMP-9: 19.9 ng/mL and 18.2 ng/mL and 21.4 ng/mL
[3]; BETi1 0.1%
  MMP-9 (% stimulated ctl) Mean: 10%
  MMP-9 (% stimulated ctl): 9% (2×) and 12%
  Mean conc MMP-9: 1.7 ng/mL
  Conc MMP-9: 1.5 ng/mL and 2.0 ng/mL and 1.6 ng/mL
[3]; BETi1 1%
  MMP-9 (% stimulated ctl) Mean: 5%
  MMP-9 (% stimulated ctl): 5% (2×) and 6%
  Mean conc MMP-9: 0.9 ng/mL
  Conc MMP-9: 0.9 ng/mL and 1.1 ng/mL and 0.8 ng/mL
